Source: US6641707B2, “Biodegradation-resistant electrodepositable coating compositions and methods related thereto” (PPG Industries Ohio, Inc., priority 2001, dated 2003)

System: aerobic heterotrophs
Assay: Bacteria Resistance Testing: acids added to infected electrodeposition permeate, spread plate count on R2A agar
Type: cell-based
Conditions: reactors rolled at 32° C.; for Bacteria Count 3 day: plated at 3 days; for Bacteria Count 7 day: plated at 7 days; for Bacteria Count 10 day: plated at 10 days
Protocol: Infected rinsewater from an online electrodeposition bath tank (containing E6100, commercially available from PPG Industries, Inc.) having a bacterial count of 1.5×10^6 cfu/mL was used to inoculate filter-sterilized ultrafiltrate (“permeate”) collected from the same line. The infected rinsewater was diluted by a factor of 10^3 into the sterile permeate. The infected permeate was added to reactors. The various acids listed below in the following Table 2 were prepared as 1% solutions in water and tested at 1000, 500, and 200 ppm of active material. Reactors were rolled for 10 days at 32° C. and were plated for bacteria counts at 3, 7, and 10 days.
The enumeration of aerobic heterotrophs in the reactors utilized the standard spread plate method as described in Standard Methods for the Examination of Water and Wastewater, 1992, section 9215C. Bacterial counts were examined using R2A agar plates. 100 μL of a suitable dilution of sample was pipetted onto the surface of the media and spread with an alcohol and flame sterilized glass rod. The plates were inverted and incubated for 3 days at 32° C. with periodic examination. Colony forming units were counted on a New Brunswick Bactronic Colony Counter. A target of 30 to 300 cfu per plate was considered a valid count.

[1] = acid at 200 ppm of active material
[2] = acid at 500 ppm of active material
[3] = acid at 1000 ppm of active material

In the case of `COCCOCC(=O)O` [2-(2-methoxyethoxy)acetic, 2-(2-methoxyethoxy)acetic acid], the “Bacteria Count 3 day” value [1] is reported as 8.0 × 10^6, the “Bacteria Count 7 day” value [1] is reported as 2.8 × 10^7 and the “Bacteria Count 10 day” value [1] is reported as 2.3 × 10^7. The “Bacteria Count 3 day” value [2] was <4.0 × 10^1, the “Bacteria Count 7 day” value [2] was >1.2 × 10^4 and the “Bacteria Count 10 day” value [2] was 4.0 × 10^6. For the same molecule, the “Bacteria Count 3 day” value [3] was <4.0 × 10^1, the “Bacteria Count 7 day” value [3] was <4.0 × 10^1 and the “Bacteria Count 10 day” value [3] was <4.0 × 10^1.

With `COCCOCCOCC(=O)O` [2-[2-(2-methoxyethoxy)-ethox]acetic, 2-[2-(methoxyethoxy)ethoxy]acetic acid] the “Bacteria Count 3 day” value [1] was 3.2 × 10^6, the “Bacteria Count 7 day” value [1] was 4.0 × 10^7 and the “Bacteria Count 10 day” value [1] was 5.2 × 10^7. The “Bacteria Count 3 day” value [2] was <4.0 × 10^1, the “Bacteria Count 7 day” value [2] was >1.2 × 10^4 and the “Bacteria Count 10 day” value [2] was 6.4 × 10^6. For the same molecule, the “Bacteria Count 3 day” value [3] was <4.0 × 10^1, the “Bacteria Count 7 day” value [3] was <4.0 × 10^1 and the “Bacteria Count 10 day” value [3] was <4.0 × 10^1.

`CCCCOCC(=O)O` [Butoxyacetic, butoxyacetic acid] was tested, and the “Bacteria Count 3 day” value [1] was 3.0 × 10^6, the “Bacteria Count 7 day” value [1] was 1.2 × 10^7 and the “Bacteria Count 10 day” value [1] was 5.6 × 10^7. For the same molecule, the “Bacteria Count 3 day” value [2] was <4.0 × 10^1, the “Bacteria Count 7 day” value [2] was <4.0 × 10^1 and the “Bacteria Count 10 day” value [2] was <4.0 × 10^1. The “Bacteria Count 3 day” value [3] was <4.0 × 10^1, the “Bacteria Count 7 day” value [3] was <4.0 × 10^1 and the “Bacteria Count 10 day” value [3] was <4.0 × 10^1.

`CCOCC(=O)O` [Ethoxyacetic, ethoxyacetic acid] was tested, and the “Bacteria Count 3 day” value [1] was 1.3 × 10^6, the “Bacteria Count 7 day” value [1] was 3.2 × 10^7 and the “Bacteria Count 10 day” value [1] was 4.8 × 10^7. For the same molecule, the “Bacteria Count 3 day” value [2] was <4.0 × 10^1, the “Bacteria Count 7 day” value [2] was <4.0 × 10^1 and the “Bacteria Count 10 day” value [2] was <4.0 × 10^1. For the same molecule, the “Bacteria Count 3 day” value [3] was <4.0 × 10^1, the “Bacteria Count 7 day” value [3] was <4.0 × 10^1 and the “Bacteria Count 10 day” value [3] was <4.0 × 10^1.

In the case of `CC(O)C(=O)O` (stereo not drawn) [Lactic, lactic acid, reference compound], the “Bacteria Count 3 day” value [2] is reported as 7.2 × 10^7, the “Bacteria Count 7 day” value [2] is reported as 7.8 × 10^7 and the “Bacteria Count 10 day” value [2] is reported as 2.4 × 10^7. For the same molecule, the “Bacteria Count 3 day” value [3] was 2.4 × 10^7, the “Bacteria Count 7 day” value [3] was 5.0 × 10^7 and the “Bacteria Count 10 day” value [3] was 2.3 × 10^7.

In the case of `COCC(=O)O` [Methoxyacetic, methoxyacetic acid], the “Bacteria Count 3 day” value [1] is reported as <4.0 × 10^1, the “Bacteria Count 7 day” value [1] is reported as <4.0 × 10^2 and the “Bacteria Count 10 day” value [1] is reported as <4.0 × 10^1. For the same molecule, the “Bacteria Count 3 day” value [2] was <4.0 × 10^1, the “Bacteria Count 7 day” value [2] was <4.0 × 10^1 and the “Bacteria Count 10 day” value [2] was <4.0 × 10^1. The “Bacteria Count 3 day” value [3] was <4.0 × 10^1, the “Bacteria Count 7 day” value [3] was <4.0 × 10^1 and the “Bacteria Count 10 day” value [3] was <4.0 × 10^1.

`O=C(O)COc1ccccc1` [Phenoxyacetic, phenoxyacetic acid] was tested, and the “Bacteria Count 3 day” value [1] was 4.0 × 10^6, the “Bacteria Count 7 day” value [1] was 8.0 × 10^6 and the “Bacteria Count 10 day” value [1] was 3.2 × 10^7. The “Bacteria Count 3 day” value [2] was <4.0 × 10^1, the “Bacteria Count 7 day” value [2] was <4.0 × 10^1 and the “Bacteria Count 10 day” value [2] was <4.0 × 10^1. The “Bacteria Count 3 day” value [3] was <4.0 × 10^1, the “Bacteria Count 7 day” value [3] was <4.0 × 10^1 and the “Bacteria Count 10 day” value [3] was <4.0 × 10^1.
